In PubChem BioAssay (NCI):
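Values below derive from 48-hour exposures of cells grown in 96-well plates, with endpoints linearly interpolated between the two concentrations bracketing the appropriate inhibition level. TGI is the concentration that stops growth completely.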 Where a SMILES comes first, the peptide text is derived from it. [ ]: non-standard residue; d: D form. The star is where a group is joined. ξ: configuration not given here. ξPhe(4-NO2) = NC(Cc1ccc([N+](=O)[O-])cc1)C(=O)O; Boc = CC(C)(C)OC(=O)*; OBn = c1ccc(CO*)cc1

Assays:
Assay in all cases: inhibition of tumour cell growth, NCI panel, 48 h
HT29 colon = tested on: HT29 colon
SF-268 CNS = tested on: SF-268 CNS
NCI-H23 lung = tested on: NCI-H23 lung
HOP-92 NSCLC = tested on: HOP-92 NSCLC
TK-10 renal = tested on: TK-10 renal
SK-OV-3 ovarian = tested on: SK-OV-3 ovarian
ACHN renal = tested on: ACHN renal
SK-MEL-5 melanoma = tested on: SK-MEL-5 melanoma
CCRF-CEM leukemia = tested on: CCRF-CEM leukemia
SW-620 colon = tested on: SW-620 colon
BT-549 breast = tested on: BT-549 breast
U251 CNS = tested on: U251 CNS

SMILES	TGI (HT29 colon)	TGI (SF-268 CNS)	TGI (NCI-H23 lung)	TGI (HOP-92 NSCLC)	TGI (TK-10 renal)	TGI (SK-OV-3 ovarian)	TGI (ACHN renal)	TGI (SK-MEL-5 melanoma)	TGI (CCRF-CEM leukemia)	TGI (SW-620 colon)	TGI (BT-549 breast)	TGI (U251 CNS)
O=c1oc2ccccc2cc1-c1nnc(-c2ccccc2)s1	> 100 µM	> 100 µM	> 100 µM	> 100 µM	> 53.8 µM	> 90 µM	> 100 µM	> 100 µM	> 100 µM	> 100 µM	> 100 µM	26.4 µM
O=C1SC(c2ccc(Cl)cc2)(c2ccc(Cl)cc2)c2ccccc21	> 100 µM	> 100 µM	> 100 µM	> 100 µM	> 100 µM	> 100 µM	> 100 µM	> 100 µM	> 100 µM	> 100 µM	> 100 µM	> 100 µM
CC1=NN2C(=O)CC(=O)N=C2S1	> 100 µM	> 100 µM	> 100 µM	> 100 µM	> 100 µM	> 100 µM	> 100 µM	> 100 µM	> 100 µM	> 100 µM	> 100 µM	> 100 µM
CC(C)(C)OC(=O)NC(Cc1ccc([N+](=O)[O-])cc1)C(=O)NCC(=O)OCc1ccccc1 (centres undefined) (Boc-[ξPhe(4-NO2)]-Gly-OBn)	61.3 µM	38.6 µM	47.5 µM	65.9 µM	> 100 µM	64.8 µM	48.4 µM	46.2 µM	48.8 µM	> 100 µM	59.6 µM	40.6 µM
COc1cc(/C=C2/SC(c3ccccc3)N(c3ccc(Cl)cc3)C2=O)cc(OC)c1OC (centres undefined)	> 100 µM	> 100 µM	> 100 µM	> 100 µM	> 100 µM	> 100 µM	> 100 µM		> 44.8 µM	> 100 µM	> 100 µM	> 100 µM
Cc1cn(CC2=NCC(C)(C)CN2)c(=O)[nH]c1=O	> 100 µM	> 100 µM	> 100 µM	> 100 µM	> 100 µM	> 100 µM	> 100 µM	> 100 µM	> 100 µM	> 100 µM	> 100 µM	> 100 µM
COC1C=C(NCC2(CO)CCC2)NC(N)=N1 (centres undefined)	> 100 µM	> 100 µM	> 100 µM	> 100 µM		> 100 µM		> 100 µM	> 100 µM	> 100 µM	> 100 µM	> 100 µM
CCCCCC(=O)OCC(=O)[C@H]1[C@H](C)C[C@H]2[C@@H]3C[C@H](F)C4=C/C(=N/OC(=O)c5cccc6c(=O)c7ccccc7[nH]c56)C=C[C@]4(C)[C@H]3[C@@H](O)C[C@@]21C	57.8 µM	> 100 µM	> 100 µM	> 100 µM	> 100 µM	> 100 µM	> 100 µM	27.8 µM	> 100 µM	> 100 µM	66.5 µM	> 100 µM
Cn1cc2c(=O)n3ncn(-c4ccc(Br)cc4)c3nc2n1	> 100 µM	> 100 µM	> 100 µM	> 100 µM	> 100 µM	> 100 µM	> 100 µM	> 100 µM	> 100 µM	> 100 µM	> 100 µM	> 100 µM
Nc1nc(Cl)cc(NCC2(CO)CCC2)n1	> 100 µM	> 100 µM	> 100 µM	> 100 µM	> 100 µM	> 100 µM	> 100 µM	> 100 µM	> 100 µM	> 100 µM	> 100 µM	> 100 µM
CC1=CCC[C@@](C)(O)[C@@H]2C[C@H]3C(CSc4ccccc4)C(=O)O[C@H]3[C@@H](O2)[C@H](C)CCC1 (some centres undefined)		> 100 µM	33.8 µM	> 100 µM	33.5 µM	37.9 µM	25.5 µM	38.3 µM	> 100 µM	93.2 µM	46.2 µM	66.8 µM
COc1cc(C)cc2c1C(=O)C(Br)=CC2=O	35 µM	35.8 µM	39.4 µM	5.41 µM	5.9 µM	33.8 µM	6.96 µM	25.1 µM	3.92 µM	3.62 µM	23.2 µM	37.4 µM
CC(C)C[C@H](NC(=O)CCc1ccccc1)B(O)O	15.4 µM	59.4 µM	> 100 µM	65.1 µM	55.8 µM		> 100 µM	22.8 µM	7.33 µM	19.1 µM	57.6 µM	> 100 µM
CC1(C)CCCCCCCCCC(C)(CCCO)C1=O (centres undefined)	26.6 µM	33.4 µM	29.1 µM	27.7 µM		31.4 µM	31.7 µM	31.3 µM	92.4 µM	34.1 µM	31.6 µM	30.4 µM
CN(C)c1ncnc2c1ncn2C1C=CC(COS(N)(=O)=O)C1 (centres undefined)	> 100 µM	> 100 µM	> 100 µM	> 100 µM		> 100 µM	> 100 µM	> 100 µM	> 100 µM	> 100 µM	> 100 µM	> 100 µM
C/C(=N\NS(=O)(=O)c1ccc(C)cc1)C(CN(C)C)C(c1ccccc1)c1c(O)c2ccccc2oc1=O (centres undefined)	> 100 µM	> 100 µM	> 100 µM	> 100 µM	> 100 µM	> 100 µM	> 100 µM	> 100 µM	> 100 µM	> 100 µM	> 100 µM	> 100 µM
Cn1c2ccccc2c(=O)c2c(O)cc3c(c21)C=CC1(CCCC1)O3	> 100 µM	> 100 µM	> 100 µM	> 100 µM	> 100 µM	> 100 µM	> 100 µM	> 100 µM	> 100 µM	> 100 µM	> 100 µM	> 100 µM
Cc1ccc(S(=O)(=O)[N-]C2C(=O)c3ccccc3C(=O)C2[n+]2cccc(C(N)=O)c2)cc1 (centres undefined)	> 100 µM	> 100 µM	> 100 µM	> 100 µM	> 100 µM	> 100 µM	> 100 µM	> 100 µM	> 100 µM	> 100 µM	> 100 µM	> 100 µM
